The target in data set [1] is T1, mouse sEH (Mus musculus, UniProt P34914).
T1 sequence (P34914 1-554): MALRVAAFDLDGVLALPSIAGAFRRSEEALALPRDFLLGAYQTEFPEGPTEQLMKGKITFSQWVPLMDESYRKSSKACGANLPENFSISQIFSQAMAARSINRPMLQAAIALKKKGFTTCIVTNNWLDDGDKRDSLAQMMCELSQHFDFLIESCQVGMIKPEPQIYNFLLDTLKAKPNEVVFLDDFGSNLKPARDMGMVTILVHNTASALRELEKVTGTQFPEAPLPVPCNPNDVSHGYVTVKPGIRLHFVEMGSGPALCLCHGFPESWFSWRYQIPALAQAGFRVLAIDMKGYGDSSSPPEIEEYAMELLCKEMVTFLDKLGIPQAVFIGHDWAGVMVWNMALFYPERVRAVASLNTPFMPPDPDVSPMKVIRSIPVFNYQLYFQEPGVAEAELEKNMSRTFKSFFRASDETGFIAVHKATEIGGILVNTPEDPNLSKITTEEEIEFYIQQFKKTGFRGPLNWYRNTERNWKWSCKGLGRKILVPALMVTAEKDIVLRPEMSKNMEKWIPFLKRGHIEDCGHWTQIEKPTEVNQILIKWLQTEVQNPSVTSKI
Kind of data set: mouse sEH inhibition assay. The class given is biochemical.

A short description of data set [2]: plasma stability assay, rat plasma. The conditions noted are these: 37 °C, pH 7.4, 0-120 min. The class given is in vitro ADME.
The nature of data set [3]: plasma stability assay, human plasma. In kind it is in vitro ADME. The conditions noted are these: pH 7.4.
Data set [4] has as its system formalin-induced orofacial pain in female rats. Particulars: doses ranging from 0.5 to 5 mg/kg; cited from earlier work.

For the compound `Cc1ccc(-c2csc(-c3ccc(NC(=O)C4CCN(S(=O)(=O)c5ccccc5Cl)CC4)cc3)n2)cc1` [SW-17, 1-((2-chlorophenyl)sulfonyl)-N-(4-(4-(p-tolyl)thiazol-2-yl)phenyl)piperidine-4-carboxamide], the “activity in mouse sEH inhibition assay (in words)” value in data set [1] is given as “weak inhibitor”. The same compound displayed a Half-life in data set [2] (5 μM) of 31.1 min. The half-life at 5 μM in data set [2] (rat, plasma, pH 7.4, Half-life) was roughly 30 min; in data set [3], 410 min.

Consider `CNS(=O)(=O)Cc1ccc2[nH]cc(CCN(C)C)c2c1` [sumatriptan], for which the “effect on formalin-induced orofacial pain” value in data set [4] is “inhibit formalin-induced orofacial pain”.

The half-life is how long it takes for the measured level to halve. A higher half-life goes with slow decline.
